# Test results from PubChem BioAssay (NCI).
#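 Test compounds were applied to cells in 96-well plates for 48 hours at 5 doses. GI50 is the concentration that inhibits growth by half. TGI: concentration producing complete growth inhibition.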
# Assays:
# Experiment in all cases: inhibition of tumour cell growth, NCI panel, 48 h
# MALME-3M melanoma = test system: MALME-3M melanoma
# SR leukemia = test system: SR leukemia
# SF-295 CNS = test system: SF-295 CNS
# LOX IMVI melanoma = test system: LOX IMVI melanoma
# HL-60(TB) leukemia = test system: HL-60(TB) leukemia
# TK-10 renal = test system: TK-10 renal
# UACC-62 melanoma = test system: UACC-62 melanoma
# DU-145 prostate = test system: DU-145 prostate
# HT29 colon = test system: HT29 colon
# OVCAR-5 ovarian = test system: OVCAR-5 ovarian
# OVCAR-3 ovarian = test system: OVCAR-3 ovarian
# IGROV1 ovarian = test system: IGROV1 ovarian
# OVCAR-8 ovarian = test system: OVCAR-8 ovarian
# K-562 leukemia = test system: K-562 leukemia
# MOLT-4 leukemia = test system: MOLT-4 leukemia
# SK-MEL-28 melanoma = test system: SK-MEL-28 melanoma
# HCC-2998 colon = test system: HCC-2998 colon
# NCI-H226 lung = test system: NCI-H226 lung
# RXF 393 renal = test system: RXF 393 renal
# HOP-92 NSCLC = test system: HOP-92 NSCLC
# A549 NSCLC = test system: A549 NSCLC
# MDA-MB-435 = test system: MDA-MB-435
# CCRF-CEM leukemia = test system: CCRF-CEM leukemia
# NCI-H522 lung = test system: NCI-H522 lung
# SNB-19 CNS = test system: SNB-19 CNS
# PC-3 prostate = test system: PC-3 prostate
# CAKI-1 renal = test system: CAKI-1 renal
# ACHN renal = test system: ACHN renal
# SN12C renal = test system: SN12C renal
# NCI/ADR-RES ovarian = test system: NCI/ADR-RES ovarian
# SNB-75 CNS = test system: SNB-75 CNS
# T-47D breast = test system: T-47D breast
# EKVX NSCLC = test system: EKVX NSCLC
# HCT-116 colon = test system: HCT-116 colon
# MCF7 breast = test system: MCF7 breast
# HS 578T breast = test system: HS 578T breast
# BT-549 breast = test system: BT-549 breast
# KM12 colon = test system: KM12 colon
# MDA-MB-231 breast = test system: MDA-MB-231 breast
# UACC-257 melanoma = test system: UACC-257 melanoma
# SF-539 CNS = test system: SF-539 CNS
# SF-268 CNS = test system: SF-268 CNS
# UO-31 renal = test system: UO-31 renal
# NCI-H460 lung = test system: NCI-H460 lung
# COLO 205 colon = test system: COLO 205 colon
# A498 renal = test system: A498 renal
# SK-MEL-5 melanoma = test system: SK-MEL-5 melanoma
# 786-0 renal = test system: 786-0 renal
# SK-MEL-2 melanoma = test system: SK-MEL-2 melanoma
# HOP-62 NSCLC = test system: HOP-62 NSCLC
# U251 CNS = test system: U251 CNS
# HCT-15 colon = test system: HCT-15 colon
# SK-OV-3 ovarian = test system: SK-OV-3 ovarian
# NCI-H23 lung = test system: NCI-H23 lung
# SW-620 colon = test system: SW-620 colon
# OVCAR-4 ovarian = test system: OVCAR-4 ovarian
# RPMI-8226 leukemia = test system: RPMI-8226 leukemia
compound,measurement,setting,value
CCN(CC)CCOc1ccc(C(=C(C)Cc2ccc(OC)cc2)c2ccc(OCCN(CC)CC)cc2)cc1,GI50,MALME-3M melanoma,6.12 µM
same,TGI,MALME-3M melanoma,10.5 µM
same,GI50,SR leukemia,0.805 µM
same,TGI,SR leukemia,3.1 µM
same,GI50,SF-295 CNS,4.36 µM
same,TGI,SF-295 CNS,8.49 µM
same,GI50,LOX IMVI melanoma,3.04 µM
same,TGI,LOX IMVI melanoma,6.44 µM
same,GI50,HL-60(TB) leukemia,3.46 µM
same,TGI,HL-60(TB) leukemia,7.77 µM
same,GI50,TK-10 renal,3.86 µM
same,TGI,TK-10 renal,8.67 µM
same,GI50,UACC-62 melanoma,4.59 µM
same,TGI,UACC-62 melanoma,8.87 µM
same,GI50,DU-145 prostate,4.59 µM
same,TGI,DU-145 prostate,10.6 µM
same,GI50,HT29 colon,2.83 µM
same,TGI,HT29 colon,7.8 µM
same,GI50,OVCAR-5 ovarian,3.68 µM
same,TGI,OVCAR-5 ovarian,7.32 µM
same,GI50,OVCAR-3 ovarian,3.2 µM
same,TGI,OVCAR-3 ovarian,7.5 µM
same,GI50,IGROV1 ovarian,4.18 µM
same,TGI,IGROV1 ovarian,8.31 µM
same,GI50,OVCAR-8 ovarian,6.08 µM
same,TGI,OVCAR-8 ovarian,15.2 µM
same,GI50,K-562 leukemia,0.609 µM
same,TGI,K-562 leukemia,2.08 µM
same,GI50,MOLT-4 leukemia,3.13 µM
same,TGI,MOLT-4 leukemia,7.55 µM
same,GI50,SK-MEL-28 melanoma,3.72 µM
same,TGI,SK-MEL-28 melanoma,7.21 µM
same,GI50,HCC-2998 colon,3.57 µM
same,TGI,HCC-2998 colon,6.97 µM
same,GI50,NCI-H226 lung,4.37 µM
same,TGI,NCI-H226 lung,11.3 µM
same,GI50,RXF 393 renal,1.42 µM
same,TGI,RXF 393 renal,5.11 µM
same,GI50,HOP-92 NSCLC,1.07 µM
same,TGI,HOP-92 NSCLC,8.98 µM
same,GI50,A549 NSCLC,4.52 µM
same,TGI,A549 NSCLC,10.6 µM
same,GI50,MDA-MB-435,3.96 µM
same,TGI,MDA-MB-435,7.48 µM
same,GI50,CCRF-CEM leukemia,2.65 µM
same,TGI,CCRF-CEM leukemia,7.2 µM
same,GI50,NCI-H522 lung,4.56 µM
same,TGI,NCI-H522 lung,9.86 µM
same,GI50,SNB-19 CNS,4.44 µM
same,TGI,SNB-19 CNS,8.84 µM
same,GI50,PC-3 prostate,3.88 µM
same,TGI,PC-3 prostate,8.15 µM
same,GI50,CAKI-1 renal,3.63 µM
same,TGI,CAKI-1 renal,7.38 µM
same,GI50,ACHN renal,4.46 µM
same,TGI,ACHN renal,8.67 µM
same,GI50,SN12C renal,3.55 µM
same,TGI,SN12C renal,7.19 µM
same,GI50,NCI/ADR-RES ovarian,4.24 µM
same,TGI,NCI/ADR-RES ovarian,8.74 µM
same,GI50,SNB-75 CNS,13.4 µM
same,TGI,SNB-75 CNS,25 µM
same,GI50,T-47D breast,4.06 µM
same,TGI,T-47D breast,10.9 µM
same,GI50,EKVX NSCLC,3.84 µM
same,TGI,EKVX NSCLC,9.13 µM
same,GI50,HCT-116 colon,2.95 µM
same,TGI,HCT-116 colon,6.51 µM
same,GI50,MCF7 breast,2.86 µM
same,TGI,MCF7 breast,6.51 µM
same,GI50,HS 578T breast,4.34 µM
same,TGI,HS 578T breast,11.5 µM
same,GI50,BT-549 breast,3.84 µM
same,TGI,BT-549 breast,7.48 µM
same,GI50,KM12 colon,3.66 µM
same,TGI,KM12 colon,7.57 µM
same,GI50,MDA-MB-231 breast,3.93 µM
same,TGI,MDA-MB-231 breast,7.91 µM
same,GI50,UACC-257 melanoma,4.62 µM
same,TGI,UACC-257 melanoma,9.29 µM
same,GI50,SF-539 CNS,3.7 µM
same,TGI,SF-539 CNS,7.37 µM
same,GI50,SF-268 CNS,4.22 µM
same,TGI,SF-268 CNS,9.16 µM
same,GI50,UO-31 renal,3.42 µM
same,TGI,UO-31 renal,6.82 µM
same,GI50,NCI-H460 lung,3.92 µM
same,TGI,NCI-H460 lung,7.8 µM
same,GI50,COLO 205 colon,4.45 µM
same,TGI,COLO 205 colon,10.3 µM
same,GI50,A498 renal,3.67 µM
same,TGI,A498 renal,16 µM
same,GI50,SK-MEL-5 melanoma,4 µM
same,TGI,SK-MEL-5 melanoma,7.47 µM
same,GI50,786-0 renal,3.42 µM
same,TGI,786-0 renal,7.04 µM
same,GI50,SK-MEL-2 melanoma,4.8 µM
same,TGI,SK-MEL-2 melanoma,9.83 µM
same,GI50,HOP-62 NSCLC,4.7 µM
same,TGI,HOP-62 NSCLC,11.2 µM
same,GI50,U251 CNS,3.99 µM
same,TGI,U251 CNS,8.34 µM
same,GI50,HCT-15 colon,2.65 µM
same,TGI,HCT-15 colon,6.25 µM
same,GI50,SK-OV-3 ovarian,5.06 µM
same,TGI,SK-OV-3 ovarian,10.5 µM
same,GI50,NCI-H23 lung,4.59 µM
same,TGI,NCI-H23 lung,10.5 µM
same,GI50,SW-620 colon,3.75 µM
same,TGI,SW-620 colon,7.71 µM
same,GI50,OVCAR-4 ovarian,4.48 µM
same,TGI,OVCAR-4 ovarian,10.7 µM
same,GI50,RPMI-8226 leukemia,3.27 µM
same,TGI,RPMI-8226 leukemia,8.39 µM
